# Test results from patent publication US10918610B2, “Compounds and methods of promoting myelination” (Case Western Reserve University, priority 2017, dated 2021).
# Tests used:
# EBP = assay: Analysis of mouse brain sterol levels in vivo; set-up: species or system C57-BL6 mice; details: mice, 10 mg/kg once daily for 3 days, versus vehicle
# Protocol: Ten to twelve week old male C57BL/6 mice were injected with Cis-N-cyclohexyl-N-ethyl-3-(3-chloro-4-cyclohexylphenyl)prop-2-enylamine dissolved in sterile saline daily for three days. Mice were anaesthetized with isoflurane and perfused with phosphate buffered saline to remove blood from the brain. Brains were collected and flash frozen using liquid nitrogen. The samples were pulverized and 50-100 milligrams of tissue were collected for further processing. A modified Folch protocol was used for extraction of sterols. Briefly, samples were resuspended in a 2:1 chloroform/methanol mixture and homogenized. Cell debris was removed by centrifugation at 4000 g for 10 min. The solution was dried under air and resuspended in hexane with a cholesterol-D7 standard and dried again. Lipids were derivatized with 70 al of bis(trimethylsilyl)trifluoroacetamide; 2 μls were injected and analyzed by GC/MS as described above.
# Cis-N-cyclohexyl-N-ethyl-3-(3-chloro-4-cyclohexylphenyl)prop-2-enylamine was dissolved in a vehicle solution containing 80/10/10 saline/DMSO/Kolliphor. C57-BL6 mice were injected at 10 mg/kg once daily for 3 days with either vehicle (DMSO) or Cis-N-cyclohexyl-N-ethyl-3-(3-chloro-4-cyclohexylphenyl)prop-2-enylamine (n=5). (5 mice/condition). After 3 days, mice were anesthetized with isoflurane and perfused with phosphate buffered saline to remove blood from the brain. […] Lipids were derivatized with 70 ul of bis(trimethylsilyl) trifluoroacetamide; Samples were analyzed in […] using electron impact ionization; ion fragment abundances were integrated. 2 ul was analyzed by gas chromatography/mass spectrometry using an Agilent 5973 Network Mass Selective Detector equipped with a 6890 gas chromatograph system and a HP-5MS capillary column ([…]). Samples were analyzed in full scan mode using electron impact ionization; ion fragment peaks were integrated to calculate sterol abundance, and quantitation was relative to cholesterol-d7. The following ion fragments were used to quantitate each metabolite: zymostenol (458), zymosterol (456), Desmosterol. […]
# human cortical spheroids = assay: MYRF+ oligodendrocytes in human cortical spheroids; format: cell-based; details: 30 nM from days 61-71, assayed on day 94, versus untreated
# Protocol: Human cortical spheroids were generated as described in Madhavan et al, (Nature Methods, 15:700-706, 2018). In brief, spheroids were left untreated, or treated with Cis-N-cyclohexyl-N-ethyl-3-(3-chloro-4-cyclohexylphenyl)prop-2-enylamine (30 nM) from days 61-71 and assayed […] on day 94 for MyRF+ oligodendrocytes (Rabbit anti-MyRF antibody was generously provided by M. Wegner and used at 1:1000).
# For patterning of neurocortical spheroids, pluripotent stem cell colonies cultured on vitronectin (Gibco; A14700) were lifted with dispase (Gibco; 17105-041) at 37° C. for 10 min. Intact colonies were transferred to individual low-adherence V-bottom 96-well plates (S-Bio Prime; MS-9096VZ) in 200 μl of spheroid starter media with 10 μM ROCK inhibitor Y-27632 (Calbiochem; 688001), 10 μM dorsopmorphin (Sigma; P5499), and 10 μM SB-431542 (Sigma; S4317). […]
# Spheroids for immunohistochemistry were initially fixed with 4% ice-cold paraformaldehyde for 45 min, washed three times in PBS, and equilibrated with 30% sucrose overnight. […] Two fields from the top and bottom of the spheroid and two fields from the edges of the central region of the spheroids were quantified. […]
compound,measurement,setting,value
CCN(C/C=C\c1ccc(C2CCCCC2)c(Cl)c1)C1CCCCC1 [Cis-N-cyclohexyl-N-ethyl-3-(3-chloro-4-cyclohexylphenyl)prop-2-enylamine],brain levels of desmosterol,EBP,decreased
same,brain levels of zymostenol,EBP,increased
same,brain levels of zymosterol,EBP,increased
same,MYRF+ oligodendrocytes in human cortical spheroids,human cortical spheroids,selectively increase MYRF+ oligodendrocytes
